Values of other authors, collected in patent publication US20230091170A1, “ENRICHMENT OF ANTIGEN-SPECIFIC ANTIBODIES FOR ANALYTIC AND THERAPEUTIC USE” (priority 2020, published 2023).
Where two headings read alike, the source gives them in different places.

In the case of `O=C(O)CCCC[C@@H]1SC[C@@H]2NC(=O)N[C@@H]21` [Biotin], the “Serum concentration of biotin” value (after a single dose of 300 mg biotin) is given as “up to 1160 ng/mL”, the “Normal circulating concentrations of biotin” value (derived from the diet and normal metabolism) is given as < 1.2 ng/mL and the “Serum concentration of biotin” value (within the first hour after ingestion, supplements of 20 mg biotin per day) is given as “up to 355 ng/mL”.
